Tests used:
male Sprague-Dawley rats = assay: Cholesterol Lowering Index: total blood cholesterol (clinical chemistry) in treated versus vehicle-treated rats; assay type: in vivo, rat; details: male rats; for Chol index (fold reduction): vs vehicle
From the text: Compound dosing was based on the acute dose LD50s recorded in published reference or literature sources. […] The MTD (maximum tolerated dose) was then selected as the dose at which the animals […] 5-10% body weight during the 5-day range finding study. […] In addition, the clinical observations must show no or mild clinical signs during the whole of the range-finding study. At the next highest dose, signs and symptoms of adverse effects and exceeding those of the MTD should be seen to occur. Should these criteria not be met, the range-finding study is repeated using a modified dose range.
(§1) After determination of the MTD and FED for a compound, each compound was dissolved in a vehicle for administration on day 1 of the study (additional daily doses were stored as frozen aliquots from this initial formulation). Each compound was administered to three individual male Sprague-Dawley rats for each of the two doses (MTD and FED) for one of four different times (0.25 day, 1 day, 3 days, and 5 days), yielding a total of up to 24 animals per compound study. Vehicle choice was based on solubility of the compound, effect of food on adsorption, and the vehicles used in the literature reports examined during the FED selection investigations, described above. Generally, the route and vehicle in which the FED was defined are used. When there was a choice of routes and vehicles, oral routes were chosen over injection routes. Many compounds, especially oncolytics, are only administerable intravenously. In such cases, the compound was administered as an intravenous formulation into the tail vein. Orally administered compounds were given dissolved in either water, 1% carboxymethycellulose (CMC) or corn oil. Intravenously and intraperitoneally administered compounds were given in 0.9% saline. Subcutaneously administered compounds were given in corn oil. Animal body weights were determined at 1 day and, where appropriate, at 4 days, before necropsy, and clinical observations were made on a daily basis. Control animals were dosed with vehicle only. Three male animals were used for each dose and time combination used for the compound treatment.
(§2) Tissue harvest and handling: After the allocated treatment time, the tissues from the animals were harvested. […] All the tissues collected were divided to provide samples for histopathological analyses, and the remainder of each tissue was then snap-frozen. […] The following blood constituents were measured: Blood Urea Nitrogen (BUN), Creatinine (CRE), Glucose (GLU), Alanine Transaminase (ALT), Aspartate Aminotrans-ferase (AST), Alkaline Phosphatase (ALP), Total Bilirubin (TBI), Sodium (SOD), Potassium (POT), Chloride (CHL), Phosphorus (PHO), Total Protein (TPR), Albumin (ALB), Cholesterol (CHO), Creatine Phosphokinase (CPK), Lactate Dehydrogenase (LDH), Carbon Dioxide (CO2), Uric Acid (UA), and Lipase. […] The parameters were measured using a Baker 9000 blood cell analysis instrument according to the manufactures instructions. The following blood constituents were measured: Leukocyte count (WBC), Differential Leukocyte counts, Erythrocyte count (RBC), Hemoglobin concentration (HGB), Hematocrit (HCT), Mean Corpuscular Volume (MCV), Mean Corpuscular Hemoglobin (MCH), Mean Corpuscular Hemoglobin Concentration (MCC), Thrombocyte Count (PLC). Histopathology: Histopathological analyses of hematoxylin and eosin-stained tissue sections were performed and peer-reviewed by board-certified (Diplomate, American College of Veterinary Pathologists) veterinary pathologists. Preparation of Enriched mRNA: Punch Biopsies were Taken from the Frozen Tissues and were completely homogenized before being processed using the MagNA Pure robot. (Roche Diagnostics Corp., Indianapolis, Ind.) in combination with the MagNA Pure LC RNA Isolation kit II (Roche Diagnostics Corp).

rat = details: rat, 4-7 daily dosing; cited from earlier work
livers of rats = assay: Signature Projection Score (SPS): match of liver gene expression to the Cholesterol Reduction Signature; assay type: in vivo; details: dose 10 (mg/ml), rat liver, maximum of training treatments = 100
Experimental: as §1
as §2, with “Corp). The amount of lysis buffer was adjusted to allow 1 ml per 50 mg for liver tissue, or 1 ml per 80 mg for all other tissues. After complete homogenization and before loading of the samples into the 32-well MagNA Pure plate, the samples were syringed 5-6 times using a 20-gauge 3-ml syringe to ensure a smooth solution for robotic processing. Tissue sample processing was performed in duplicate wells (loading 150 μl of homogenized sample and 150 μl of additional lysis buffere to each well) of the MagNA Pure LC, which is programmed to extract mRNA using oligo-dT selection technology into a final elution volume of 100 μl. Poly A(+) RNA sample concentration was performed using a standard ethanol precipitation protocol in the presence of glycogen (50 μg/ml).” for “Corp).”

For `C#C[C@]1(O)CC[C@H]2[C@@H]3CCc4cc(O)ccc4[C@H]3CC[C@@]21C` [ETHINYLESTRADIOL, (17α)-norpregna-1,3,5(10)-trien-20-yne-3,17-diol], the “Cholesterol Index (fold reduction)” value (male Sprague-Dawley rats; Table 4, dose 10, time point 5 days) was 3.9 fold reduction, the “Chol index (fold reduction)” value (male Sprague-Dawley rats; dose 10, time 3 days) was 3.65 fold reduction and the “Chol index (fold reduction)” value (male Sprague-Dawley rats; dose 10, time 5 days) was 4.09 fold reduction. For the same compound, the “reduction in total cholesterol” value (rat) was 89%, the SPS (livers of rats; time point 1 day) was 50 and the SPS (livers of rats; time point 5 days) was 76.2.

From patent US7422854B1, “Cholesterol reduction signature” (priority 2002, dated 2008)
